One assay deals with rat knee joints. Nature of the assay: Chondrogenesis promoting effect with administration into rat knee joints. The class given is in vivo. The note with it: 1 mmol/L, 50 μL per day into right knee joint for 3 weeks. As for the experimental part: A 27G injection needle and 1 mL syringe (both by Terumo Corp.) were used to administer 1 mmol/L of “compound A” (dissolved in 50% DMSO dimethylsulfoxide)-physiological saline solution; DMSO by Junsei Chemical Corp., physiological saline by Otsuka Pharmaceutical Corp.) into the right knee joint of 10-week-old male SD rats (Nihon Charles River Corp.) at a dosage of 50 μL per day for 3 weeks.
Another test group was administered 50% DMSO-physiological saline (by Junsei Chemical Corp. and Otsuka Pharmaceutical Corp., respectively) in the same manner as a vehicle control.
After 3 weeks of daily administration, the rats were autopsied, and the distance between lateral and medial attachment sites of collateral ligament of the right femur was measured with calipers (Mitsutoyo Corp.) to determine the width of the femoral knee joint. Then, in the same manner as Example 1, tissue samples were prepared and stained with 0.3% Safranin O (Merck Co., Ltd.) and observed under a microscope (magnification: 10× object lens, product of Nihon Kogaku Corp.).

For assay [1], the system named is rat primary culture articular chondrocytes. Nature of the assay: Uptake of 3H-labeled thymidine (cell growth). The class given is cell-based. The note with it: 10 μmol/L of compound, vs control solvent. As for the experimental part: Articular chondrocytes were trimmed from the femoral knee joint of 6-week-old male SD rats (Nihon SLC Corp.) using a scalpel, and then digested in 0.3% collagenase (WORTHINGTON Corp.) and cultivated (Calcif. Tissue Int. 19:179-187,1975).
Uptake of ^3H-labeled thymidine (Amersham Corp.) was measured to determine the cell growth. For the measurement, the isolated articular chondrocytes were cultured in a 96-well cell culturing plate (FALCON Corp.) to a cell density of 10,000 per well. The medium used was an equivalent mixture of Dulbecco MEM containing fetal bovine serum (final concentration: 10%), 100 U/mL of penicillin (Meiji Seika Co., Ltd.) and 100 μg/mL of streptomycin (Banyu Pharmaceutical Corp.), and Ham F-12 medium (both by GIBCO Corp.). After 60-70% of the cells reached confluency, the medium was exchanged with one having a fetal bovine serum concentration of 0.3% and culturing was carried out overnight. On the following day, the medium was exchanged with the same type also containing compound A at a final concentration of 0.1, 1.0 or 10 μmol/L and 0.3% fetal bovine serum. […] The filter paper was soaked with plastic scintillator (Wallac Corp.), and the radioactivity was measured with a scintillation counter (Wallac Corp.). […]

Assay [2] deals with common mouse chondrocyte and adipocyte precursor cell line (CL-1). Nature of the assay: Differentiation of CL-1 into chondrocytes, alcian blue/oil red O double staining. The class given is cell-based. The note with it: 10 μmol/L, 7 days after confluency, vs vehicle control. As for the experimental part: […] (WO98/39414) were cultured in a 4-well chamber slide (Nunc Corp.) to a cell density of 5000/cm^2. The medium used was A-MEM (GIBCO Corp.) containing 100 U/mL of penicillin (Meiji Seika Co., Ltd.), 100 μg/mL of streptomycin (Banyu Pharmaceutical Corp.) and 10% fetal bovine serum (INTERGEN Corp.). When the CL-1 cells reached confluency, compound A was added to a final concentration of 10 μmol/L, with further addition when the medium was exchanged 3 times a week during culturing for 7 days.
A slide was also prepared with ethanol (Junsei Chemical Corp.) to a final concentration of 1% in the medium as a vehicle control. On the 7th day after confluency, the plates were collected, the CL-1 cell layer was double-stained with alcian blue and oil red O, and differentiation to chondrocytes or adipocytes was observed. After culturing was completed, the cell layer was fixed for one hour at room temperature with a 4% paraformaldehyde solution (Wako Pure Chemical Industries) and then washed with 0.1N hydrochloric acid and stained overnight with an aqueous solution (pH 1.0) of 1% alcian blue (EM Science Corp.). […]

The test system is the same in assay [3]. The assay is described as follows: Uptake of 35S-labeled sulfuric acid into CL-1. Type of assay: cell-based. The note with it: 10 μmol/L (A and F also 1 or 5 μmol/L), 48 h culture.

Take `CCOC(CN1C(=O)[C@](CC(=O)Nc2ccc(C)cc2)(NC(=O)Nc2ccc(C)cc2)c2ccccc21)OCC` [Compound A, (+)-1-(2,2-diethoxyethyl)-3-((4-methylphenyl)aminocarbonylmethyl)-3-(N′-(4-methylphenyl)ureido)indolin-2-one]: the “femoral knee joint width” value in the assay with rat knee joints (10-week-old male SD rats, vs vehicle control) is “significantly larger”. The “histological observation of femoral knee joint (Safranin O)” value in the assay with rat knee joints (rats) is reported as “Safranin O-positive accelerated formation of cartilage tissue”. Further, in assay [1], the “uptake of 3H-labeled thymidine” value was “significantly increased”. Further, in assay [2], the “differentiation of CL-1 to adipocytes (oil red O)” value is recorded as “suppressed” and the “differentiation of CL-1 to chondrocytes (alcian blue)” value is listed as “clearly promoted”. For the same molecule, the “differentiation of CL-1 to adipocytes” value in assay [3] was “clearly suppress”.
